Data reported in US8557526B2, “Synaptotagmin and collapsin response mediator protein as biomarkers for traumatic brain injury” (University of Florida Research Foundation, Inc., priority 2007, dated 2013).

Legend:
[1] = tested on: primary cortical neurons; assay: CRMP immunoblot after neurotoxin treatment of primary cortical neurons, with or without protease inhibitors; format: cell-based, rat; conditions: for CRMP5 after neurotoxin / intact CRMP1 and CRMP4 after neurotoxin: NMDA 200 μM 6 hours, maitotoxin 3 nM 3 hours; for integrity of intact CRMP2 / appearance of 55 kDa BDP after neurotoxin: NMDA 200 μM, MTX, STS 0.5 μM, EDTA 5 mM; for STS-mediated generation of the 55 kDa CRMP2 BDP (effect of inhibitor): STS 0.5 μM challenge, primary cortical neurons; for formation of the 55 kDa CRMP2 BDP after NMDA treatment (effect of inhibitor pretreatment): pretreatment of primary cortical culture
Procedure: Primary cortical neurons from first post-natal day Sprague-Dawley rat brains were plated on poly-L-lysine coated culture plates (Erie Scientific, Portsmouth, N.H., U.S.A.). Cells were dissociated with trypsin and DNase I, re-suspended in 10% plasma-derived horse serum (PDHS) in Dulbecco's modified Eagle's medium (DMEM), and plated on poly-L-lysine treated 35 mm (density: 3.0×10^6 cells per well) plates. Cells were allowed to grow in an atmosphere of 10% CO2 at 37° C. for three days and then treated with 1 μM 4-amino-6-hydrazino-7-β-D-ribofuranosyl-7H-pyrrolo (2,3-d)-pyrimidine-5-carboxamide (ARC) for two days. The ARC was removed and fresh 10% PDHS was added in DMEM, after which the cells were grown for an additional 10-14 days.
Protein concentrations of cell or tissue lysates were determined via Bio-Rad DC Protein Assay (Bio-Rad, Hercules, Calif.). Protein balanced samples were prepared for sodium dodecyl sulfate-polyacrylamide gel electrophoresis (SDS-PAGE) in a two-fold loading buffer containing 0.25 M Tris (pH 6.8), 0.2 M DTT, 8% SDS, 0.02% bromophenol blue, and 20% glycerol in distilled water. Samples were heated for 90 seconds at 90° C. and centrifuged for 2 minutes. Twenty micrograms (20 μg) of protein per lane were routinely resolved by SDS-PAGE on Tris-glycine gels for 2 hours at 130V. Following electrophoresis, separated proteins were laterally transferred to polyvinylidene fluoride (PVDF) membranes in a transfer buffer containing 39 mM glycine and 48 mM Tris-HCl (pH 8.3) 5% methanol at a constant voltage of 20 V for 2 hours at ambient temperature in a semi-dry transfer unit (Bio-Rad) by the semi-dry method.
Rat CRMP5 antibody (targeting to residues 369-564, Chemicon, Temecula, Calif.) was dialyzed with PBS using Slide-A-Lyzer MINI Dialysis Units, (Pierce, 3.5MWCO, 69550, Rockford, Ill.). Then CRMP5 was biotinylated by using EZ-link, sulfo-NHS-LC-LC-biotin by following the manufacture's instructions. Membranes were blotted either with anti-CRMP-1, or -4 (targeting residues 499-511, Chemicon), biotinylated-anti-CRMP5 antibodies or anti-CRMP2 (C4G) or a C-terminal anti-CRMP2 antibody raised against a synthetic peptides of residues 551-559), and developed with biotin and avidin-conjugated alkaline phosphatase (this step was skipped in CRMP5 blotting) and nitroblue tetrazolium and 5-bromo-4-chloro-3-indolyl phosphate. Quantitative evaluation of protein levels was performed via computer-assisted densitometric scanning (NIH Image J V.1.6 software).

[2] = tested on: rat cerebrocortical cultures; assay: Synaptotagmin-1 fragmentation and vesicle organization in neurotoxin-challenged neuronal cultures; format: cell-based; conditions: for organization of synaptotagmin-coupled vesicles: cerebrocortical neurons and cerebellar granule neurons; for fragmentation of 65 kDa synaptotagmin-1 protein (33-36 kDa N-terminal fragments): oncotic, apoptotic and excitotoxic challenge
Procedure: Cerebrocortical cells harvested from 1-day old Sprague-Dawley rat brains were plated on poly-L-lysine coated on 6-well culture plates (Erie Scientific, Portsmouth, N.H., USA) at a density of 4.36×10^5 cells/mL. Cultures were maintained in Dulbecco's modified Eagle's medium (DMEM) with 10% fetal bovine serum in a humidified incubator in an atmosphere of 10% CO2 at 37° C. After 5 days in culture, the media were changed to DMEM with 5% horse serum. Subsequent media changes were performed three times a week. Experiments were performed on days 10 to 11 in vitro when astroglia had formed a confluent monolayer beneath morphologically mature neurons.
Cerebrocortical cultures (12-day-old) from above were washed three times with serum-free MEM.
After electrotransfer, blotting membranes were blocked for 1 hour at ambient temperature in 5% non-fat milk in TBS and 0.05% […] (TBST), then incubated in primary monoclonal synaptotagmin-1 antibody (BD Cat# 610434) in TBST with 5% milk at 1/50 dilution as recommended by the manufacturer at 4° C. overnight, followed by three washes with TBST and a 2 hour incubation at ambient temperature with a secondary antibody linked to biotinylated secondary antibody (Amersham, Cat # RPN1177v1) followed by a 30 min incubation with strepavidin-conjugated alkaline phosphatase (calorimetric method). Colorimetric development was performed with a one-step BCIP NBT reagent (KPL, Cat # 50-81-08). Molecular weights of intact synaptotagmin-1 protein and their potential breakdown products (BDPs) were assessed by running along side rainbow colored molecular weight standards (Amersham, Cat # RPN800V).

[3] = tested on: primary cortical neurons; assay: LDH release assay of NMDA induced neuronal cell injury; format: cell-based, rat; conditions: for protection against NMDA induced neuronal cell injury (LDH release): time course, protection within 6 hours
Procedure: LDH release assays were performed to determine the role of calpain and caspase inhibition on NMDA induced neuronal cell injury, and to draw a link with CRMP2 degradation. The release of LDH, normally present in the cytoplasm of neurons, into the cell culture media can be used as a measure of dying cells.

[4] = target: T1, calpain (Rattus norvegicus, UniProt Q07009); assay: In vitro calpain digestion of naïve brain lysate (CRMP2 immunoblot); format: biochemical; conditions: pretreatment of naïve lysate
T1 construct: purchased Calbiochem
T1 sequence (Q07009 20-700 limits assumed): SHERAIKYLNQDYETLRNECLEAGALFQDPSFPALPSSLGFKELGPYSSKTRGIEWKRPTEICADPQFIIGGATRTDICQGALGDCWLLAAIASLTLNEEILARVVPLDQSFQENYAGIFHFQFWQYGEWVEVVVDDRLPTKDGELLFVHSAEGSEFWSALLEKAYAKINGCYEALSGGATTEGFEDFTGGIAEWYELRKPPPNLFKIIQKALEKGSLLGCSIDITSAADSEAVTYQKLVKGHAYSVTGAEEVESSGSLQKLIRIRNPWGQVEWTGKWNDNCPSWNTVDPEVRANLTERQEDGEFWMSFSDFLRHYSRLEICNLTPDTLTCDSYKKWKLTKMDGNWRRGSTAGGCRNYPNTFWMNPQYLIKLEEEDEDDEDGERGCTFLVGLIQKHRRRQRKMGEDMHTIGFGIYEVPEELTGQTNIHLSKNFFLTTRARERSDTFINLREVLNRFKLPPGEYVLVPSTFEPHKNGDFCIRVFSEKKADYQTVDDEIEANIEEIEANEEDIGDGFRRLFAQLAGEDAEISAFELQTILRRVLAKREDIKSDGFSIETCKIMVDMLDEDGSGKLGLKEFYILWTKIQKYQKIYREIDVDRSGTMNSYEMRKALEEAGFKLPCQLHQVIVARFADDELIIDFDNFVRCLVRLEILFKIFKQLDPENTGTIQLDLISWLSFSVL
T1 sequence (Q64537 88-270 partner limits assumed): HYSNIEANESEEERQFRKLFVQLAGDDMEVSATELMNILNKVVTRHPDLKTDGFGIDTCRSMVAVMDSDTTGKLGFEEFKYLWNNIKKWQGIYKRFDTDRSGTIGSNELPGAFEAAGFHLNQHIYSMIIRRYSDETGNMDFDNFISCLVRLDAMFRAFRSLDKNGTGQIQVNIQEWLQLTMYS
Procedure: (§1) In vitro digestion of rat brain lysate (5 mg) was performed with the purified proteases human erythrocyte calpain-1, rat recombinant calpain-2 (Calbiochem, San Diego, Calif.) and recombinant human caspase-3 (Chemicon, Temecula, Calif.) in a buffer containing 100 mM Tris-HCl (pH 7.4) and 20 mM DTT. For calpain, 2 mM CaCl2 was also added, and then incubated at room temperature for 30 minutes. For caspase-3, samples were incubated at 37° C. for four hours. Protease reactions were stopped by the addition of calpain inhibitor SJA6017 to a concentration of 30 μM (Senju Pharmaceuticals, Kobe, Japan) or pan-caspase inhibitor Z-VAD to a concentration of 20 μM and a protease inhibitor cocktail solution.
(§2) This example was to determine whether CRMP2 proteolysis was calpain mediated following TBI, similar to the proteolysis found in cell culture after neurotoxin treatment. […] The complete inhibition of calpain and caspase activity was confirmed by parallel monitoring of calpain and caspase associated αII-spectrin degradation. […] Therefore, calpain produced the 55 kDa CRMP-2 BDP, while caspase-3 was ruled out.

[5] = target: T2, recombinant human caspase-3 (Homo sapiens, UniProt P42574); assay: In vitro caspase-3 digestion of naïve brain lysate (CRMP2 immunoblot); format: biochemical
T2 construct: purchased Chemicon
T2 sequence (P42574 29-175 limits assumed): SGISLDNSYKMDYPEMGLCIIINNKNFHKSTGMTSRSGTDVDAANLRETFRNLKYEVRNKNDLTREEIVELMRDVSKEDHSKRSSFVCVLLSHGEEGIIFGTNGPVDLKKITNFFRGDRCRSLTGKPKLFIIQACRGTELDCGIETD
T2 sequence (P42574 176-277 limits assumed): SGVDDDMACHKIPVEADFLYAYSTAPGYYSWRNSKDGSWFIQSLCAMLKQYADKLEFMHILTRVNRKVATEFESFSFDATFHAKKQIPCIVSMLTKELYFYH
Procedure: as §1, §2

Row | Compound | CRMP5 after neurotoxin [1] | intact CRMP1 and CRMP4 after neurotoxin [1] | organization of synaptotagmin-coupled vesicles [2] | fragmentation of 65 kDa synaptotagmin-1 protein (33-36 kDa N-terminal fragments) [2] | integrity of intact CRMP2 / appearance of 55 kDa BDP after neurotoxin [1] | STS-mediated generation of the 55 kDa CRMP2 BDP (effect of inhibitor) [1] | formation of the 55 kDa CRMP2 BDP after NMDA treatment (effect of inhibitor pretreatment) [1] | protection against NMDA induced neuronal cell injury (LDH release) ([3]; NMDA treatment) | further results
1 | C=CC[C@H](C)[C@H](C)C[C@@H](O)[C@H](O)[C@@H]1CC[C@@]2(C)O[C@@]3(C)C[C@@]4(C)O[C@H]5/C=C\C[C@H]6O[C@H]7C[C@H]8O[C@H]9C[C@@]%10(C)O[C@@](C)([C@@H]%11CC[C@H]%12O[C@@]%13(C)C[C@H]%14O[C@@]%15(C)C[C@H]%16O[C@@]%17(C)C[C@@H](O)[C@H]([C@@H]%18O[C@H]%19[C@H](O)[C@@H](O)[C@H](C[C@H](O)C[C@@H](O)[C@@H]%20O[C@H]%21[C@H](O)[C@@H](O)[C@H]([C@@H]%22O[C@@H]%23[C@H](O)[C@H]%24O[C@H]%25C[C@H]%26O[C@@H](C[C@H](O)[C@@H](O)[C@H]%27O[C@H]%28[C@H](O)[C@H]%29O[C@H]%30C[C@H]%31O[C@H]%32[C@@H](O)[C@@H](O)[C@H]([C@H](C)[C@H](O)[C@H](C)CC[C@H](OS(=O)(=O)O)[C@H](O)[C@H](C)C[C@@H](O)C(=C)/C(C)=C/CO)O[C@@H]%32[C@H](O)C[C@]%31(C)O[C@@H]%30C[C@]%29(C)O[C@@H]%28C[C@H]%27O)[C@H](OS(=O)(=O)O)[C@H](O)[C@@H]%26O[C@@H]%25C[C@@H]%24O[C@H]%23[C@H](O)[C@H]%22O)O[C@H]%21C[C@H]%20O)O[C@H]%19C[C@H]%18O)O[C@@H]%17[C@H](O)[C@]%16(C)O[C@@H]%15CC[C@]%14(C)O[C@@H]%13C[C@@H]%12O%11)[C@H](O)C[C@@H]%10O[C@]9(C)CC[C@]8(C)O[C@]7(C)C[C@@H]6O[C@@H]5C[C@@H]4O[C@@H]3C[C@@H]2O1 [MTX, maitotoxin] | no remarkable change | Decrease of CRMP1 and CRMP4 | extensive disorganization | fragmented by calpain into N-terminal fragments |  |  |  |  | 
2 | CN[C@H](CC(=O)O)C(=O)O [NMDA, N-Methyl-D-Asparate] | no remarkable change | Decrease of CRMP1 and CRMP4 | extensive disorganization | fragmented by calpain into N-terminal fragments | marked reduction |  |  |  | time of appearance of the 55 kDa CRMP2 BDP ([1]; NMDA 200 μM time course): ≤ 3 h; neuron death (LDH release) ([3]; NMDA treatment, peaking at 24 hours): induced significant neuron death after a 3 hour induction
3 | CC(C)C[C@@H](C=O)NC(=O)[C@@H](NS(=O)(=O)c1ccc(F)cc1)C(C)C [SJA6017] |  |  |  |  |  | effectively blocked | prevented the formation of the 55 kDa CRMP2 BDP | significant protection within 6 hours | protection of neurons from excitotoxic injury after 12 hours ([3]; preincubation with inhibitor, after 12 hours): did not effectively protect; formation of the 55 kDa CRMP-2 BDP by calpain in naïve brain lysate (effect of inhibitor) [4]: blocked formation of the 55 kDa CRMP-2 BDP
4 | CN[C@@H]1C[C@H]2O[C@@](C)([C@@H]1OC)n1c3ccccc3c3c4c(c5c6ccccc6n2c5c31)C(=O)NC4 [STS, staurosporine] |  |  |  | fragmented by calpain into N-terminal fragments | rapidly degraded to the 55 kDa BDP |  |  |  | 
5 | Z-VAD |  |  |  |  |  | offered no protection | not | no protection | 66 kDa intact CRMP2 band after caspase-3 treatment with inhibitor [5]: did completely disappear
